One compound from PMC5146660, “Functional and structural characterization of a novel putative cysteine protease cell wall-modifying multi-domain enzyme selected from a microbial metagenome” (Scientific Reports, 2016) can be followed below.

The target of the assay is T1, PCP (putative cysteine protease).
T1 construct: domains 1-48, 49-185 (CHAP, Cys100/His161), 186-247 (PGBD), 248-319 (SH3); monomer; printed peptide 178PVTDALKR185; primers encode start (M)LGQISTA and end KYARLVE
Description: tryptophan fluorescence quenching, double-logarithm regression. The class given is binding, uncultured bacterium (Capra hircus rumen metagenome). The following applies: 50 mM NaH2PO4, 300 mM NaCl, 200 mM imidazole, pH 8.5, 25 °C; protein 5.28 μM; excitation 295 nm; read-out: Kb (converted).

In the case of `CC1(C)S[C@@H]2[C@H](NC(=O)[C@H](N)c3ccccc3)C(=O)N2[C@H]1C(=O)O` [ampicillin], the Kd is 5.56 µM.
